Reference: publication PMC11206507, “Unraveling the Impact of Six Pentacyclic Triterpenes Regulating Metabolic Pathways on Lung Carcinoma Cells” (Pharmaceuticals, 2024)

How the values were obtained:
[1] = test system: MAPK/PI3K; assay: MAPK/PI3K protein expression (dual pathway activation kit, flow cytometry); type: cell-based, human; conditions: for MAPK/PI3K expression (in words): A549, IC25, 24 h, vs untreated cells; for MAPK/PI3K inhibition: summary, NSCLC A549 cells; on MAPK/PI3K inhibition: key: '✔' means induction; '-' means non-induction of any of the tested processes
Description: (§1) We used flow cytometry to analyze several cellular mechanistic pathways in A549 cells after incubation with the triterpenes. In general, the cells were seeded in a 6-well plate at a density of 1 × 10^6 cells/mL and incubated for 24 h in supplemented DMEM. After 24 h, the A549 cells were treated with the triterpenes, following each manufacturer’s protocol. All of the following experiments were performed in a Muse® Cell Analyzer (EMD Millipore Corporation, Temecula, CA). The instrument was calibrated before each assay using the Muse® System Check Kit (Luminex MCH100101, Luminex Corporation). Each assay was run at least in two independent experiments. For each experiment, all samples were analyzed in triplicate in the instrument and the capillary line was washed after each sample run to avoid artifacts. In addition, to address the issue of cell doublets, we used the Muse® Cell Dispersal Reagent (Luminex Corporation) in all experiments. The concentration of the triterpenes in each assay was selected depending on the cellular concentration necessary to generate the gain signal in the instrument. This means that we attempted to select concentrations avoiding excessive cytotoxicity to accurately determine the respective signal from each assay.
The Muse® P13K/MAPK Dual Pathway Activation Kit (Luminex MCH200108, Luminex Corporation) was used to determine MAPK/PI3K expression. After the incubation treatment with the triterpenes (IC25) for 24 h, the A549 cells were scraped, centrifuged, and washed once with 1× PBS. Next, the fixation buffer was incubated for 10 min and then the permeabilization buffer for another 10 min. Both incubations were performed on ice. Later, the antibody cocktail containing anti-phospho-Akt and anti-phospho-ERK1/2 was incubated for 30 min. Afterward, the cell pellet was washed and suspended in fresh assay buffer for measurement.

[2] = MTS/PMS cell viability, MRC5; type: cell-based; conditions: human, MRC5 normal lung fibroblast cells
Description: The 50% inhibitory concentration (IC50) of some of these triterpenes in A549 NSCLC cells were previously determined by us. A similar procedure was performed to determine the IC50 of the triterpenes in a normal lung fibroblast cell line (MRC5). In brief, the A549 and MRC5 cells were seeded into 96-well plates at a density of 1 × 10^5 cells/mL in supplemented DMEM medium. The cells were treated with specific concentrations (A549: 5, 10, 25, 50, 75, 100, 125,150, 175, 200 μM; MRC5: 5, 10, 25, 50, 75, 100 μM) of the triterpenes and incubated for 24 h. Then, 10 uL of the MTS reagent from the CellTiter 96® Aqueous Non-Radioactive Cell Proliferation Assay (Promega G5421) was added to each well. Then, we incubated the plates at 37 °C and in a 5% CO2 atmosphere for 1 h. After incubation, the absorbance was measured at 492 nm (n = 8) in a microplate reader spectrophotometer (Thermoscientific Multiskan FC). The cell viability was calculated as follows:% Viability = (sample absorbance − sample media absorbance)/(untreated cells’ absorbance − untreated cells’ media absorbance) × 100
The cell viability data were presented by plotting the values with an average of eight measurements for each treatment (mean ± SD) in at least three independent experiments. The IC50 values were calculated with the GraphPad Prism 9 software (Prism 9; GraphPad by Dotmatics, San Diego, CA, USA) using the dose–response curve. The data were normalized by the non-linear fit of the log (drug inhibition) vs. normalized response variable slope to obtain the best fit IC50 and R-squared values.

[3] = test system: NSCLC A549 cells; design: method as in PMID 31338398; conditions: 24 h, MTS/PMS; already obtained by the authors; cited from earlier work
[4] = test system: A549 cells; assay: Externalization of phosphatidylserine, Annexin V confocal microscopy; type: cell-based, human; conditions: A549, IC25, 24 h
Description: Early apoptotic activity was evaluated by the externalization of PS using the Alexa Fluor® 488 Annexin V Apoptosis Reagent (Molecular Probes™) and NucBlue ReadyProbes Reagent™ (Thermo Fisher Scientific). For this assay, A549 cells were seeded in 8-well cover slip plates with a density of 1 × 10^5 cells/mL for 24 h in supplemented DMEM. Then, the A549 cells were incubated with the triterpenes (IC25) and controls for 24 h. Afterward, the cells were washed with 1× PBS and incubated with NucBlue (DAPI analog) and Annexin V for 15 min in the dark. The cells were fixed with 3.7% formaldehyde solution for 15 min, washed three times with 1× PBS, and covered with glycerol before visualization. The plates were observed by confocal microscopy using a Nikon Eclipse Ti microscope (Nikon Instruments Inc., El Segundo, CA, USA), utilizing a 20× oil objective with filter sets compatible with DAPI (Ex/Em = 405/460 nm) and Annexin V Alexa Fluor (Ex/Em = 488/525 nm). The fluorescence intensity was analyzed using the NIS-Elements Viewer program (version 5.21 64-bit) (Nikon Instruments Inc.). Each sample was analyzed in duplicate in two independent experiments. The fluorescence intensity was adjusted using untreated cells for each fluorescence channel (green and blue). Subsequently, this calibrated intensity was applied for the analysis of all treated cells.

[5] = test system: LC3-II; assay: Autophagy induction assay (LC3 antibody, flow cytometry); type: cell-based, human; conditions: for Autophagic response (in words): A549, IC25, 24 h, vs controls (untreated ratio 0.8, starving ratio 1); for Autophagy inhibition: summary, NSCLC A549 cells
Description: as §1
The Muse® Autophagy LC3 Antibody-Based Kit (Luminex MCH200109, Luminex Corporation) was used to determine autophagy activation by monitoring lipidated LC3-II. After the A549 cells were treated with the triterpenes (IC25) for 24 h, autophagy reagent A was added for 4 h to prevent the lysosomal degradation of LC3-II. Then, the cells were detached and centrifuged. The pellet was suspended and incubated for 30 min in the autophagy reagent B containing anti-LC3-II mouse monoclonal antibody. Finally, the cell pellet was washed and suspended in fresh assay buffer for measurement. The autophagy response was calculated using the following formula:
Autophagy ratio = mean autophagy value of treated or untreated cells/mean autophagy value of starving cells.
The starving cells were labeled ‘No supp’ as non-supplemented cells. These served as the positive signal for autophagy and were designated a ratio of 1 since they were compared to themselves. A ratio ≥1 indicates the activation of the autophagic response.

SMILES | MAPK/PI3K expression (in words) [1] | MAPK/PI3K inhibition [1] | IC50 at 24 h [2] [µM] | IC50 [3] [µM] | Early apoptosis, externalization of PS (in words, qualitative) [4] | Autophagic response (in words) [5] | Autophagy inhibition [5]
C[C@H]1[C@H](C)CC[C@]2(C(=O)O)CC[C@]3(C)C(=CC[C@@H]4[C@@]5(C)CC[C@H](O)C(C)(C)[C@@H]5CC[C@]43C)[C@H]12 [UrA, ursolic acid] | induced the simultaneous expression of MAPK and PI3K | - | 13 ± 1 | 23 ± 1 | strongest activation | induced an autophagic response similar to that of CisPt | -
C=C(C)[C@@H]1CC[C@]2(CO)CC[C@]3(C)[C@H](CC[C@@H]4[C@@]5(C)CC[C@H](O)C(C)(C)[C@@H]5CC[C@]43C)[C@@H]12 [Betu, betulin] | slightly inhibit the total expression of MAPK/PI3K |  | 16 ± 0.5 |  | strongest activation | induced an autophagic response similar to that of CisPt | -
C=C(C)[C@@H]1CC[C@]2(C(=O)O)CC[C@]3(C)[C@H](CC[C@@H]4[C@@]5(C)CC[C@H](O)C(C)(C)[C@@H]5CC[C@]43C)[C@@H]12 [BeA, betulinic acid] | did not affect the expression of MAPK/PI3K | - | 19 ± 0.4 | 15 ± 0.7 | lowest |  | 
C=C(C)[C@@H]1CC[C@]2(C)CC[C@]3(C)[C@H](CC[C@@H]4[C@@]5(C)CC[C@H](O)C(C)(C)[C@@H]5CC[C@]43C)[C@@H]12 [Lupe, lupeol] | did not affect the expression of MAPK/PI3K | - | 101 ± 8 | 80 ± 6 | lowest | inhibit the LC3-II activity | 
